Source: DBAASP
Converted amounts (≈) assume the structure as drawn.

Assays:
Assay in all cases: ≥ marks a high value that may be exact or a test limit, other limits are often not marked, values filed in µg/mL are converted to µM
Candida albicans SC5314 = tested on: Candida albicans SC5314
[1] = tested on: Candida parapsilosis ATCC 22019
[2] = tested on: Candida tropicalis ATCC 13803
[3] = tested on: Candida albicans ATCC 90028
Candida krusei ATCC 6258 = tested on: Candida krusei ATCC 6258
Klebsiella pneumoniae = tested on: Klebsiella pneumoniae
Escherichia coli ESBL = tested on: Escherichia coli ESBL
[4] = tested on: Salmonella enterica subsp. enterica serovar Pullorum C79-13
[5] = tested on: Salmonella typhimurium ATCC 7731
[6] = tested on: Staphylococcus aureus ATCC 43300
[7] = tested on: Bacillus subtilis CMCC 63501
[8] = tested on: Staphylococcus epidermidis ATCC 12228
[9] = tested on: Escherichia coli ATCC 25922
[10] = tested on: Staphylococcus aureus ATCC 29213
Escherichia coli UB1005 = tested on: Escherichia coli UB1005
[11] = tested on: Pseudomonas aeruginosa ATCC 27853
[12] = tested on: Enterococcus faecalis ATCC 29212
[13] = tested on: Salmonella enterica subsp. enterica serovar Typhimurium ATCC 14028
[14] = tested on: Pseudomonas aeruginosa PAO1
Saccharomyces cerevisiae = tested on: Saccharomyces cerevisiae
Bacillus subtilis = tested on: Bacillus subtilis
Salmonella typhimurium = tested on: Salmonella typhimurium
Streptococcus mutans = tested on: Streptococcus mutans
Staphylococcus aureus = tested on: Staphylococcus aureus
Escherichia coli = tested on: Escherichia coli
Cryptococcus neoformans = tested on: Cryptococcus neoformans
Streptococcus pneumoniae = tested on: Streptococcus pneumoniae
Candida albicans = tested on: Candida albicans
Serratia marcescens = tested on: Serratia marcescens
Pseudomonas putida = tested on: Pseudomonas putida
[15] = tested on: Bacillus subtilis ATCC 19659
[16] = tested on: Staphylococcus aureus ATCC 25923
[17] = tested on: Staphylococcus aureus ATCC 15752
[18] = tested on: Streptococcus mutans ATCC 25175
[19] = tested on: Pseudomonas putida ATCC 17426
[20] = tested on: Candida albicans ATCC 10231
[21] = tested on: Saccharomyces cerevisiae ATCC 44774
[22] = tested on: Salmonella enterica subsp. enterica serovar Enteritidis ATCC 13076
[23] = tested on: Cryptococcus neoformans ATCC 34881
[24] = tested on: Escherichia coli ATCC 27325
[25] = tested on: Bacillus subtilis ATCC 62037

SMILES: NCCCC[C@H](NC(=O)[C@@H](N)CS)C(=O)N[C@@H](Cc1ccc(O)cc1)C(=O)N[C@@H](CCCN=C(N)N)C(=O)N[C@@H](Cc1c[nH]c2ccccc12)C(=O)N[C@@H](CCCN=C(N)N)C(=O)O [CKYRWR]
- MIC (Candida albicans SC5314): ≥ 439 µM
- MIC [1]: ≥ 220 µM
- MIC [2]: ≥ 220 µM

SMILES: CC[C@H](C)[C@H](NC(=O)[C@@H](NC(=O)CN)C(C)C)C(=O)N[C@@H](CCCCN)C(=O)N[C@@H](C)C(=O)N[C@@H](C)C(=O)N[C@@H](CCCCN)C(=O)N[C@@H](CCCCN)C(=O)N[C@H](C(=O)N[C@H](C(=O)N[C@@H](CC(N)=O)C(=O)N[C@H](C(=O)N[C@@H](CC(C)C)C(=O)N[C@@H](CCCCN)C(=O)N[C@@H](CC(N)=O)C(=O)N[C@@H](CC(C)C)C(=O)N[C@@H](Cc1ccccc1)C(N)=O)C(C)C)C(C)C)C(C)C [GVIKAAKKVVNVLKNLF]
- MIC (Candida albicans SC5314): ≥ 34.8 µM
- MIC [1]: ≥ 34.8 µM
- MIC [3]: ≥ 69.5 µM
- MIC (Candida krusei ATCC 6258): ≥ 34.8 µM

SMILES: CC(C)C[C@H](NC(=O)[C@H](CCCCN)NC(=O)CNC(=O)[C@H](CCCCN)NC(=O)[C@H](Cc1ccccc1)NC(=O)[C@H](CCCCN)NC(=O)[C@H](Cc1c[nH]c2ccccc12)NC(=O)[C@H](CCCN=C(N)N)NC(=O)[C@H](Cc1ccccc1)NC(=O)[C@H](CCCN=C(N)N)NC(=O)[C@H](CCCN=C(N)N)NC(=O)[C@H](Cc1ccc(O)cc1)NC(=O)[C@H](CO)NC(=O)[C@H](CCCCN)NC(=O)CN)C(=O)N[C@@H](Cc1ccccc1)C(=O)N[C@@H](CC(C)C)C(=O)N[C@@H](Cc1ccccc1)C(=O)NCC(N)=O [GKSYRRFRWKFKGKLFLFG]
- MIC (Klebsiella pneumoniae): 6.61 µM (≈ 16 µg/mL)
- MIC (Escherichia coli ESBL): 4.67 µM (≈ 11.3 µg/mL)

SMILES: CC(C)C[C@H](NC(=O)[C@H](CCCCN)NC(=O)[C@H](CCCCN)NC(=O)[C@H](C)NC(=O)[C@@H](NC(=O)[C@H](CCCCN)NC(=O)[C@H](CO)NC(=O)[C@H](CC(C)C)NC(=O)[C@H](Cc1c[nH]c2ccccc12)NC(=O)[C@H](CC(C)C)NC(=O)[C@H](CCCCN)NC(=O)[C@H](CCCCN)NC(=O)[C@H](C)NC(=O)[C@@H](NC(=O)[C@H](CCCCN)NC(=O)[C@H](CO)NC(=O)[C@H](CC(C)C)NC(=O)[C@@H](N)Cc1c[nH]c2ccccc12)[C@@H](C)O)[C@@H](C)O)C(N)=O [WLSKTAKKLWLSKTAKKL]
- MIC [4]: 16 µM (≈ 34.1 µg/mL)
- MIC [5]: ≥ 32 µM
- MIC [6]: 128 µM (≈ 273 µg/mL)
- MIC [7]: ≥ 64 µM
- MIC [8]: 128 µM (≈ 273 µg/mL)
- MIC [9]: 8 µM (≈ 17 µg/mL)
- MIC [10]: 128 µM (≈ 273 µg/mL)
- MIC (Escherichia coli UB1005): 8 µM (≈ 17 µg/mL)
- MIC [11]: 16 µM (≈ 34.1 µg/mL)

SMILES: CC[C@H](C)[C@H](NC(=O)[C@H](CCCN=C(N)N)NC(=O)[C@@H](N)Cc1ccccc1)C(=O)N[C@@H](CCCN=C(N)N)C(=O)N[C@H](C(=O)N[C@@H](CCCN=C(N)N)C(=O)N[C@H](C(N)=O)C(C)C)C(C)C [FRIRVRV]
- MIC [5]: ≥ 32 µM
- MIC [12]: 32 µM (≈ 30.2 µg/mL)
- MIC [7]: 16 µM (≈ 15.1 µg/mL)
- MIC [8]: 32 µM (≈ 30.2 µg/mL)
- MIC [13]: 16 µM (≈ 15.1 µg/mL)
- MIC [14]: 32 µM (≈ 30.2 µg/mL)
- MIC (Escherichia coli UB1005): ≥ 32 µM
- MIC [11]: 16 µM (≈ 15.1 µg/mL)

SMILES: CC(C)C[C@H](NC(=O)CNC(=O)[C@H](CCCCN)NC(=O)[C@@H](N)CCCN=C(N)N)C(=O)N[C@@H](CCC(N)=O)C(=O)N[C@@H](CCCCN)C(=O)N[C@@H](CC(C)C)C(=O)N[C@H](C(=O)NCC(=O)N[C@@H](CCCN=C(N)N)C(=O)N[C@H](C(=O)N[C@@H](Cc1cnc[nH]1)C(=O)N[C@@H](CCCN=C(N)N)C(=O)N[C@@H](CC(C)C)C(=O)N[C@@H](CC(C)C)C(=O)N[C@@H](CCCN=C(N)N)C(=O)N[C@@H](CCCCN)C(=O)O)C(C)C)C(C)C [RKGLQKLVGRVHRLLRK]
- MIC (Saccharomyces cerevisiae): 1.94 µM (≈ 4 µg/mL)
- MIC (Bacillus subtilis): 7.78 µM (≈ 16 µg/mL)
- MIC (Salmonella typhimurium): 1.94 µM (≈ 4 µg/mL)
- MIC (Streptococcus mutans): 15.6 µM (≈ 32 µg/mL)
- MIC (Staphylococcus aureus): 7.78 µM (≈ 16 µg/mL)
- MIC (Escherichia coli): 7.78 µM (≈ 16 µg/mL)
- MIC (Cryptococcus neoformans): 3.89 µM (≈ 8 µg/mL)
- MIC (Streptococcus pneumoniae): 7.78 µM (≈ 16 µg/mL)
- MIC (Candida albicans): 7.78 µM (≈ 16 µg/mL)
- MIC (Serratia marcescens): 15.6 µM (≈ 32 µg/mL)
- MIC (Pseudomonas putida): 7.78 µM (≈ 16 µg/mL)

SMILES: CC[C@H](C)[C@H](NC(C)=O)C(=O)N[C@@H](Cc1ccccc1)C(=O)NCC(=O)N[C@@H](C)C(=O)N[C@H](C(=O)N[C@@H](Cc1c[nH]c2ccccc12)C(=O)N1CCC[C@H]1C(=O)N[C@@H](CC(C)C)C(=O)N[C@@H](C)C(=O)N[C@@H](CC(C)C)C(=O)NCC(=O)N[C@@H](C)C(=O)N[C@@H](CC(C)C)C(=O)N[C@@H](CCCCN)C(=O)N[C@@H](CC(N)=O)C(=O)N[C@@H](CC(C)C)C(=O)N[C@H](C(=O)N[C@@H](CCCCN)C(N)=O)[C@@H](C)CC)[C@@H](C)CC [IFGAIWPLALGALKNLIK]
- MIC [1]: ≥ 125 µM
- MIC [3]: ≥ 32 µM
- MIC [15]: 4 µM (≈ 7.92 µg/mL)
- MIC [9]: 128 µM (≈ 253 µg/mL)
- MIC [16]: 4 µM (≈ 7.92 µg/mL)
- MIC (Candida krusei ATCC 6258): ≥ 125 µM
- MIC [11]: > 128 µM

SMILES: CC(C)C[C@H](NC(=O)CNC(=O)[C@H](C)NC(=O)[C@@H](N)CCCN=C(N)N)C(=O)N[C@@H](CCC(N)=O)C(=O)N[C@@H](Cc1ccccc1)C(=O)N1CCC[C@H]1C(=O)N[C@H](C(=O)NCC(=O)N[C@@H](CCCN=C(N)N)C(=O)N[C@@H](CC(C)C)C(=O)N[C@@H](CC(C)C)C(=O)N[C@@H](CCCN=C(N)N)C(=O)N[C@@H](CCCN=C(N)N)C(=O)N[C@@H](CC(C)C)C(=O)N[C@@H](CC(C)C)C(=O)N[C@@H](CCCN=C(N)N)C(=O)N[C@@H](CCCN=C(N)N)C(=O)N[C@@H](CC(C)C)C(=O)N[C@@H](CC(C)C)C(=O)N[C@@H](CCCN=C(N)N)C(=O)O)C(C)C [RAGLQFPVGRLLRRLLRRLLR]
- MIC [17]: 0.781 µM (≈ 2 µg/mL)
- MIC [18]: 0.781 µM (≈ 2 µg/mL)
- MIC (Saccharomyces cerevisiae): 1.56 µM (≈ 4 µg/mL)
- MIC [19]: 0.781 µM (≈ 2 µg/mL)
- MIC (Bacillus subtilis): 0.391 µM (≈ 1 µg/mL)
- MIC (Salmonella typhimurium): 0.391 µM (≈ 1 µg/mL)
- MIC (Streptococcus mutans): 0.195 µM (≈ 0.5 µg/mL)
- MIC [20]: 0.391 µM (≈ 1 µg/mL)
- MIC (Staphylococcus aureus): 0.391 µM (≈ 1 µg/mL)
- MIC [21]: 0.781 µM (≈ 2 µg/mL)
- MIC [22]: 0.781 µM (≈ 2 µg/mL)
- MIC [23]: 0.781 µM (≈ 2 µg/mL)
- MIC (Escherichia coli): 0.391 µM (≈ 1 µg/mL)
- MIC (Cryptococcus neoformans): 0.391 µM (≈ 1 µg/mL)
- MIC (Streptococcus pneumoniae): 0.391 µM (≈ 1 µg/mL)
- MIC (Candida albicans): 0.781 µM (≈ 2 µg/mL)
- MIC [24]: 0.391 µM (≈ 1 µg/mL)
- MIC (Serratia marcescens): 0.391 µM (≈ 1 µg/mL)
- MIC [25]: 0.391 µM (≈ 1 µg/mL)
- MIC (Pseudomonas putida): 0.781 µM (≈ 2 µg/mL)
